Experiments:
[1] = system: anti-Malachite Green antibodies; test: competitive ELISA: sensitivity and specificity of the produced anti-Malachite Green antibodies; type: binding, rabbit; settings: for level detectable by the antibodies: competitive inhibition ELISA; for Cross-reactivities / Sensitivity: competitive ELISA; for Cross-reactivities: Malachite Green = 100; for Sensitivity: produced anti-Malachite Green antibodies
Protocol: In accordance with this embodiment, the diluted antiserum is added to a Malachite Green Chromatic conjugate-coated solid substrate such as the wells of an assay plate, together with a range of concentrations of free Malachite Green Chromatic as a competitor. Following incubation and washing, bound antibody in the wells is determined. Percent inhibition may be calculated as (1−B/B0)×100 where B is the optical density (OD) of a well with a competitor and B0 is the mean OD of the wells without competitor (control). […] However, for even greater accuracy, the affinity may be alternatively measured at 50% inhibition (IC50). […] Detection of bound antibody may be accomplished by addition of enzyme-labeled anti-immunoglobulin antibodies followed by enzyme substrate. Horseradish peroxidase and its substrate TMB are preferred enzyme/substrate labels. However, it is understood that other enzyme/substrate labels or non-enzyme labels such as radiolabels or chromophores may also be used.
Two female New Zealand White Rabbits, 8 weeks old, were initially immunized by intraperitoneal injection with 0.2 mg of Malachite Green-KLH conjugate as prepared in EXAMPLE 1 mixed with complete Freund's adjuvant. Five booster immunizations were administered at 15-day intervals using the antigen. Blood was collected 7 to 10 days after the last booster immunization in order to check for antibody titers. Titers were checked using both indirect ELISA and competitive ELISA that employed Malachite Green Chromatic-BSA conjugate as the coating antigen and free Malachite Green Chromatic as competitor. […] A typical competitive ELISA procedure is described below: • (1). In the Malachite Green Chromatic-BSA coated 96-well plate, add 50 μL of negative control and each Malachite Green Chromatic standard (1, 5, 10, 25, 50, 100 ng/mL) in duplicate into different wells; add 50 μL of each sample in duplicate into different sample wells. • (2). Add 100 μL of diluted Malachite Green Antibody #1 and mix well by gently tapping the edge of the plate for 10 seconds. • (3). Incubate the plate for 30 min at 37° C. or 1 hr at room temperature (15-25° C.). • (4). Wash the plate 3 times with 250 μL 1×PBS. After the last wash, gently slap the plate dry on paper towels. • (5). Add 150 μL of HRP Goat-against Rabbit antibody conjugate solution. Incubate the plate for 30 min at 37° C. or 1 hr at room temperature (15-25° C.). • (6). Wash the plate 3 times with 250 μL 1×PBS. After the last wash, gently slap the plate dry on paper towels. • (7). Add 100 μL of TMB substrate. • (8). Time the reaction immediately after adding the substrate; mix the solution by gently tapping the edge of the plate. • (9). After incubating for 15 min at room temperature, add 100 μL of 1 M H2SO4 to stop the enzyme reaction before reading the plate at 450 nm.

[2] = system: Leukomalachite Green antibody; settings: Randox antibody raised against Leucomalachite Green immunogen; cited from earlier work
[3] = in fish; cited from earlier work

With `CN(C)c1ccc(C(O)(c2ccccc2)c2ccc(N(C)C)cc2)cc1` [Carbinol] the “level detectable by the antibodies” value [1] was 0.5 ng/mL.
For `O=C(N[C@H](CO)[C@H](O)c1ccc([N+](=O)[O-])cc1)C(Cl)Cl` [Chloramphenicol], the Cross-reactivities [1] was under 0.01% and the Sensitivity [1] was >10,000 ng/ml.
In the case of `CC(C)(C)NCC(O)c1cc(Cl)c(N)c(Cl)c1` (centres unmarked) [Clenbuterol], the Cross-reactivities [1] was under 0.01% and the Sensitivity [1] was >10,000 ng/ml.
Work on `CN(C)c1ccc(C(=C2C=CC(=[N+](C)C)C=C2)c2ccc(N(C)C)cc2)cc1` [Crystal Violet] yielded a Cross-reactivities [1] of 42% and a Sensitivity [1] of 10 ng/mL.
With `O=C1OCCN1/N=C/c1ccc([N+](=O)[O-])o1` [Furazolidone] the Sensitivity [1] was >10,000 ng/ml.
`CN(C)c1ccc(C(c2ccc(N(C)C)cc2)c2ccc(N(C)C)cc2)cc1` [Leucocrystal Violet] showed a Cross-reactivities [1] of under 0.01% and a Sensitivity [1] of 5000 ng/mL.
With `CN(C)c1ccc(C(c2ccccc2)c2ccc(N(C)C)cc2)cc1` [Leucomalachite Green] the Cross-reactivities [1] was 1%, the Sensitivity [1] was 500 ng/mL and the “level detectable by the antibodies” value [1] was 0.5 ng/mL.
In the case of `CN(C)c1ccc(C(=C2C=CC(=[N+](C)C)C=C2)c2ccccc2)cc1` [Malachite Green], the cross reactivity [2] is listed as 26.8%, the “converted into Leucomalachite Green” value [3] is listed as about 80% and the Cross-reactivities [1] is listed as 100%. For the same molecule, the Sensitivity [1] was 1 ng/mL and the test sensitivity ([1]; produced antibodies, Table 1 summary) was 1 ppb.
With `Cc1cc(C)nc(NS(=O)(=O)c2ccc(N)cc2)n1` [Sulfumethazine] the Cross-reactivities [1] was under 0.01% and the Sensitivity [1] was >10,000 ng/ml.

— patent publication US20070254323A1, “Malachite green derivatives for immunoassay reagents to detect malachite green” (priority 2006, published 2007)
